Species: Rattus norvegicus
Experiment: Open TG-GATES - Regimen: Daily Repeat
Assay type: toxicity, organism-based, Sprague-Dawley
Set-up: regimen Daily Repeat, gender Male, age 6 weeks
Conditions: in vivo, po, route gavage; for ALT / AST / BUN / CRE / Ca / Cl / DBIL / GLC / IP / K / LDH / Na / PL / RALB / TBIL / TC / TG / TP / gamma-GTP / A/G / ALP: tissue Plasma; for APTT / Bas / Eos / Fbg / Hb / Ht / Lym / MCH / MCHC / MCV / Mono / Neu / PT / Plat / RBC / Ret / WBC: tissue Blood; for KIDNEY_L / KIDNEY_R / KIDNEY_TOTAL: tissue Kidney; for LIVER: tissue Liver
[1] = 30 mg/kg, […], dose level Low, time 14 day
[2] = 30 mg/kg, […], dose level Low, time 28 day
[3] = 100 mg/kg, 72 h, dose level Middle, time 3 day
[4] = 100 mg/kg, […], dose level Middle, time 7 day
[5] = 100 mg/kg, […], dose level Middle, time 14 day
[6] = 100 mg/kg, […], dose level Middle, time 28 day
[7] = 300 mg/kg, 72 h, dose level High, time 3 day
[8] = 300 mg/kg, […], dose level High, time 7 day
[9] = 300 mg/kg, […], dose level High, time 14 day

CCc1cc(C(N)=S)ccn1 [ETHIONAMIDE]
ALT [1]: 34.8 IU/L
AST [1]: 62.4 IU/L
BUN [1]: 17.6 mg/dL
CRE [1]: 0.5 mg/dL
Ca [1]: 10.8 mg/dL
Cl [1]: 104.4 meq/L
DBIL [1]: 0.026 mg/dL
GLC [1]: 206.6 mg/dL
IP [1]: 7.2 mg/dL
K [1]: 4.4 meq/L
LDH [1]: 95.4 IU/L
Na [1]: 142.2 meq/L
PL [1]: 152.2 mg/dL
RALB [1]: 4.1 g/dL
TBIL [1]: 0.3 mg/dL
TC [1]: 70.4 mg/dL
TG [1]: 107.6 mg/dL
TP [1]: 5.9 g/dL
gamma-GTP [1]: 1.8 IU/L
A/G [2]: 2.2
ALP [2]: 680.6 IU/L
ALT [2]: 35.8 IU/L
AST [2]: 60 IU/L
BUN [2]: 21.2 mg/dL
CRE [2]: 0.7 mg/dL
Ca [2]: 10.1 mg/dL
Cl [2]: 106 meq/L
DBIL [2]: 0.022 mg/dL
GLC [2]: 198.8 mg/dL
IP [2]: 6.3 mg/dL
K [2]: 4.6 meq/L
LDH [2]: 95.2 IU/L
Na [2]: 140.4 meq/L
PL [2]: 143.8 mg/dL
RALB [2]: 4.1 g/dL
TBIL [2]: 0.3 mg/dL
TC [2]: 71.4 mg/dL
TG [2]: 129 mg/dL
TP [2]: 6 g/dL
gamma-GTP [2]: 1.6 IU/L
TERMINAL_BW [3]: 233.1 g
APTT [3]: 17.5 s
Bas [3]: 0%
Eos [3]: 1%
Fbg [3]: 209 mg/dL
Hb [3]: 14.5 g/dL
Ht [3]: 42.6%
Lym [3]: 67%
MCH [3]: 21.7 pg
MCHC [3]: 33.9%
MCV [3]: 64 fL
Mono [3]: 10.8%
Neu [3]: 21.6%
PT [3]: 11.6 s
Plat [3]: 130 x10_4/uL
RBC [3]: 666.2 x10_4/ul
Ret [3]: 10.3%
WBC [3]: 119.1 x10_2/uL
KIDNEY_L [3]: 1.1 g
KIDNEY_R [3]: 1.1 g
KIDNEY_TOTAL [3]: 2.2 g
LIVER [3]: 12.4 g
A/G [3]: 2
ALP [3]: 951.2 IU/L
ALT [3]: 41.6 IU/L
AST [3]: 65.6 IU/L
BUN [3]: 17.4 mg/dL
CRE [3]: 0.5 mg/dL
Ca [3]: 10.5 mg/dL
Cl [3]: 104.2 meq/L
DBIL [3]: 0.032 mg/dL
GLC [3]: 197.6 mg/dL
IP [3]: 7.1 mg/dL
K [3]: 4.7 meq/L
LDH [3]: 94.2 IU/L
Na [3]: 140.8 meq/L
PL [3]: 125 mg/dL
RALB [3]: 3.6 g/dL
TBIL [3]: 0.2 mg/dL
TC [3]: 65.4 mg/dL
TG [3]: 59.2 mg/dL
TP [3]: 5.4 g/dL
gamma-GTP [3]: 1 IU/L
TERMINAL_BW [4]: 267.6 g
TERMINAL_BW [5]: 316.7 g
TERMINAL_BW [6]: 405.2 g
APTT [4]: 17 s
Bas [4]: 0%
Eos [4]: 1%
Fbg [4]: 212 mg/dL
Hb [4]: 14.2 g/dL
Ht [4]: 42.3%
Lym [4]: 68.6%
MCH [4]: 20.9 pg
MCHC [4]: 33.7%
MCV [4]: 62.1 fL
Mono [4]: 8.6%
Neu [4]: 21.6%
PT [4]: 11.7 s
Plat [4]: 148.8 x10_4/uL
RBC [4]: 681.8 x10_4/ul
Ret [4]: 3.6%
WBC [4]: 136.5 x10_2/uL
APTT [5]: 17.7 s
Bas [5]: 0%
Eos [5]: 1.4%
Fbg [5]: 221 mg/dL
Hb [5]: 15.2 g/dL
Ht [5]: 44.6%
Lym [5]: 63.8%
MCH [5]: 21.4 pg
MCHC [5]: 34.2%
MCV [5]: 62.6 fL
Mono [5]: 4.4%
Neu [5]: 30.4%
PT [5]: 11.8 s
Plat [5]: 131.1 x10_4/uL
RBC [5]: 712 x10_4/ul
Ret [5]: 4.9%
WBC [5]: 203.6 x10_2/uL
APTT [6]: 16.9 s
Bas [6]: 0%
Eos [6]: 1.6%
Fbg [6]: 228.4 mg/dL
Hb [6]: 15.9 g/dL
Ht [6]: 46.2%
Lym [6]: 72.4%
MCH [6]: 20.4 pg
MCHC [6]: 34.4%
MCV [6]: 59.3 fL
Mono [6]: 4.8%
Neu [6]: 21.2%
PT [6]: 11.7 s
Plat [6]: 140.7 x10_4/uL
RBC [6]: 780.4 x10_4/ul
Ret [6]: 7.8%
WBC [6]: 170.4 x10_2/uL
KIDNEY_L [4]: 1.1 g
KIDNEY_R [4]: 1.2 g
KIDNEY_TOTAL [4]: 2.4 g
KIDNEY_L [5]: 1.4 g
KIDNEY_R [5]: 1.4 g
KIDNEY_TOTAL [5]: 2.8 g
KIDNEY_L [6]: 1.6 g
KIDNEY_R [6]: 1.6 g
KIDNEY_TOTAL [6]: 3.2 g
LIVER [4]: 13.1 g
LIVER [5]: 16 g
LIVER [6]: 18.7 g
A/G [4]: 1.8
ALP [4]: 899 IU/L
ALT [4]: 40.8 IU/L
AST [4]: 66.8 IU/L
BUN [4]: 15.8 mg/dL
CRE [4]: 0.4 mg/dL
Ca [4]: 10.4 mg/dL
Cl [4]: 104 meq/L
DBIL [4]: 0.088 mg/dL
GLC [4]: 194.8 mg/dL
IP [4]: 6.7 mg/dL
K [4]: 4.6 meq/L
LDH [4]: 106.2 IU/L
Na [4]: 139.8 meq/L
PL [4]: 122.2 mg/dL
RALB [4]: 3.7 g/dL
TBIL [4]: 0.3 mg/dL
TC [4]: 62 mg/dL
TG [4]: 52.2 mg/dL
TP [4]: 5.7 g/dL
gamma-GTP [4]: 2.4 IU/L
A/G [5]: 2.6
ALP [5]: 878.4 IU/L
ALT [5]: 33.8 IU/L
AST [5]: 58.8 IU/L
BUN [5]: 16.8 mg/dL
CRE [5]: 0.5 mg/dL
Ca [5]: 10.5 mg/dL
Cl [5]: 105 meq/L
DBIL [5]: 0.034 mg/dL
GLC [5]: 196.8 mg/dL
IP [5]: 6.6 mg/dL
K [5]: 4.4 meq/L
LDH [5]: 82 IU/L
Na [5]: 142.2 meq/L
PL [5]: 125.2 mg/dL
RALB [5]: 4.2 g/dL
TBIL [5]: 0.3 mg/dL
TC [5]: 60.6 mg/dL
TG [5]: 65.8 mg/dL
TP [5]: 5.8 g/dL
gamma-GTP [5]: 1.4 IU/L
A/G [6]: 2.1
ALP [6]: 579.4 IU/L
ALT [6]: 39.4 IU/L
AST [6]: 56 IU/L
BUN [6]: 19 mg/dL
CRE [6]: 0.6 mg/dL
Ca [6]: 9.9 mg/dL
Cl [6]: 104.4 meq/L
DBIL [6]: 0.016 mg/dL
GLC [6]: 196 mg/dL
IP [6]: 5.9 mg/dL
K [6]: 4.6 meq/L
LDH [6]: 86.2 IU/L
Na [6]: 140 meq/L
PL [6]: 121.6 mg/dL
RALB [6]: 4.2 g/dL
TBIL [6]: 0.3 mg/dL
TC [6]: 62.4 mg/dL
TG [6]: 60.4 mg/dL
TP [6]: 6.2 g/dL
gamma-GTP [6]: 1.8 IU/L
TERMINAL_BW [7]: 204.1 g
APTT [7]: 20 s
Bas [7]: 0%
Eos [7]: 1.4%
Fbg [7]: 161.6 mg/dL
Hb [7]: 17.1 g/dL
Ht [7]: 50.4%
Lym [7]: 59.8%
MCH [7]: 21.7 pg
MCHC [7]: 34.1%
MCV [7]: 63.5 fL
Mono [7]: 6.4%
Neu [7]: 32.6%
PT [7]: 16 s
Plat [7]: 119.1 x10_4/uL
RBC [7]: 794.4 x10_4/ul
Ret [7]: 13.3%
WBC [7]: 115.4 x10_2/uL
KIDNEY_L [7]: 1 g
KIDNEY_R [7]: 1 g
KIDNEY_TOTAL [7]: 2 g
LIVER [7]: 10.3 g
A/G [7]: 2.3
ALP [7]: 1108.2 IU/L
ALT [7]: 72.6 IU/L
AST [7]: 190.6 IU/L
BUN [7]: 12.2 mg/dL
CRE [7]: 0.5 mg/dL
Ca [7]: 9.7 mg/dL
Cl [7]: 106.2 meq/L
DBIL [7]: 0.1 mg/dL
GLC [7]: 172.6 mg/dL
IP [7]: 7.6 mg/dL
K [7]: 4.6 meq/L
LDH [7]: 244 IU/L
Na [7]: 139.4 meq/L
PL [7]: 82.8 mg/dL
RALB [7]: 3.4 g/dL
TBIL [7]: 0.3 mg/dL
TC [7]: 46.4 mg/dL
TG [7]: 16 mg/dL
TP [7]: 4.9 g/dL
gamma-GTP [7]: 1.4 IU/L
TERMINAL_BW [8]: 227.8 g
APTT [8]: 21.4 s
Bas [8]: 0.3%
Eos [8]: 3.7%
Fbg [8]: 206 mg/dL
Hb [8]: 16 g/dL
Ht [8]: 46.9%
Lym [8]: 44.7%
MCH [8]: 20.2 pg
MCHC [8]: 34.1%
MCV [8]: 59.2 fL
Mono [8]: 9%
Neu [8]: 42%
PT [8]: 14.7 s
Plat [8]: 109.9 x10_4/uL
RBC [8]: 792.3 x10_4/ul
Ret [8]: 2.8%
WBC [8]: 127.9 x10_2/uL
Bas [9]: 0%
MCHC [9]: 34.2%
KIDNEY_L [8]: 1 g
KIDNEY_R [8]: 1 g
KIDNEY_TOTAL [8]: 2.1 g
KIDNEY_L [9]: 1 g
KIDNEY_TOTAL [9]: 2.1 g
LIVER [8]: 11.3 g
A/G [8]: 1.7
ALP [8]: 739.3 IU/L
ALT [8]: 66 IU/L
AST [8]: 129 IU/L
BUN [8]: 12.7 mg/dL
CRE [8]: 0.4 mg/dL
Ca [8]: 10.1 mg/dL
Cl [8]: 102.3 meq/L
DBIL [8]: 0.0933 mg/dL
GLC [8]: 143 mg/dL
IP [8]: 7.2 mg/dL
K [8]: 3.9 meq/L
LDH [8]: 397.7 IU/L
Na [8]: 136.7 meq/L
PL [8]: 123.7 mg/dL
RALB [8]: 3.6 g/dL
TBIL [8]: 0.3 mg/dL
TC [8]: 95.3 mg/dL
TG [8]: 22.3 mg/dL
TP [8]: 5.7 g/dL
gamma-GTP [8]: 3.7 IU/L
TBIL [9]: 0.3 mg/dL
gamma-GTP [9]: 7 IU/L
